Results: ChEMBL document CHEMBL1201862, “PubChem BioAssay data set” (2004)
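Where inhibition never reached the appropriate level, the endpoint shown equals the highest concentration tested. Otherwise, values were interpolated linearly from a five-concentration, 48-hour dose response in 96-well plates. GI50 = concentration required for 50% inhibition of growth.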 Active and inactive are the calls of the source. Rule as the data show it: active = GI50 up to about 1.1 µM and inactive = higher.

Key:
Test in all cases: growth of human tumour cells (NCI), 48 h
786-0 = tested on: 786-0
A549 = tested on: A549
ACHN = tested on: ACHN
CCRF-CEM = tested on: CCRF-CEM
COLO 205 = tested on: COLO 205
DLD-1 = tested on: DLD-1
DMS-273 = tested on: DMS-273
EKVX = tested on: EKVX
HCC 2998 = tested on: HCC 2998
HCT-116 = tested on: HCT-116
HCT-15 = tested on: HCT-15
HL-60 = tested on: HL-60
HOP-62 = tested on: HOP-62
HOP-92 = tested on: HOP-92
HT-29 = tested on: HT-29
IGROV-1 = tested on: IGROV-1
K562 = tested on: K562
KM-20L2 = tested on: KM-20L2
KM12 = tested on: KM12
LOX IMVI = tested on: LOX IMVI
LXFL 529 = tested on: LXFL 529
M14 = tested on: M14
M19-MEL = tested on: M19-MEL
MOLT-4 = tested on: MOLT-4
Malme-3M = tested on: Malme-3M
NCI-H226 = tested on: NCI-H226
NCI-H23 = tested on: NCI-H23
NCI-H460 = tested on: NCI-H460
NCI-H522 = tested on: NCI-H522
OVCAR-3 = tested on: OVCAR-3
OVCAR-4 = tested on: OVCAR-4
OVCAR-8 = tested on: OVCAR-8
RXF 393 = tested on: RXF 393
SF-268 = tested on: SF-268
SF-295 = tested on: SF-295
SF-539 = tested on: SF-539
SK-MEL-28 = tested on: SK-MEL-28
SK-MEL-2 = tested on: SK-MEL-2
SK-MEL-5 = tested on: SK-MEL-5
SK-OV-3 = tested on: SK-OV-3
SN12C = tested on: SN12C
SNB-19 = tested on: SNB-19
SNB-75 = tested on: SNB-75
SNB-78 = tested on: SNB-78
SR = tested on: SR
SW-620 = tested on: SW-620
TK-10 = tested on: TK-10
U-251 = tested on: U-251
UACC-257 = tested on: UACC-257
UACC-62 = tested on: UACC-62
UO-31 = tested on: UO-31
XF498 = tested on: XF498
A498 = tested on: A498
CAKI-1 = tested on: CAKI-1
OVCAR-5 = tested on: OVCAR-5
RPMI-8226 = tested on: RPMI-8226
DMS-114 = tested on: DMS-114

Measured: GI50

Cc1ccc(-n2c(C)nc3c2C(=O)c2ccccc2C3=O)cc1
7.53 µM: HCT-15
inactive: 786-0 18.5 µM | A549 28.9 µM | ACHN 27.9 µM | CCRF-CEM 11.1 µM | COLO 205 14.6 µM | DLD-1 9.33 µM | DMS-273 9.86 µM | EKVX > 100 µM | HCC 2998 57.5 µM | HCT-116 5.73 µM | HL-60 9.14 µM | HOP-62 41.2 µM | HOP-92 49.4 µM | HT-29 11.9 µM | IGROV-1 27.9 µM | K562 5.86 µM | KM-20L2 18.3 µM | KM12 > 100 µM | LOX IMVI 7.98 µM | LXFL 529 9.84 µM | M14 58.2 µM | M19-MEL 12 µM | MOLT-4 > 100 µM | Malme-3M 20.4 µM | NCI-H226 > 100 µM | NCI-H23 25.9 µM | NCI-H460 4.44 µM | NCI-H522 34.7 µM | OVCAR-3 21.8 µM | OVCAR-4 82.8 µM | OVCAR-8 17.4 µM | RXF 393 > 100 µM | SF-268 7.41 µM | SF-295 25 µM | SF-539 10.4 µM | SK-MEL-28 52.6 µM | SK-MEL-2 40.7 µM | SK-MEL-5 15.2 µM | SK-OV-3 > 100 µM | SN12C 28.4 µM | SNB-19 71.9 µM | SNB-75 34.4 µM | SNB-78 > 100 µM | SR > 100 µM | SW-620 33.5 µM | TK-10 > 100 µM | U-251 9.46 µM | UACC-257 19.1 µM | UACC-62 8.57 µM | UO-31 66.7 µM | XF498 50.5 µM

CC1=C(O)C(=O)C2C(=O)C1C(C)C2c1ccccc1 (stereo not given)
inactive: 786-0 > 100 µM | A498 > 100 µM | A549 > 100 µM | ACHN > 100 µM | CAKI-1 > 100 µM | CCRF-CEM > 100 µM | COLO 205 > 100 µM | DLD-1 > 100 µM | DMS-273 > 100 µM | EKVX > 100 µM | HCC 2998 > 100 µM | HOP-62 > 100 µM | HOP-92 > 100 µM | HT-29 > 100 µM | IGROV-1 > 100 µM | K562 > 100 µM | KM12 > 100 µM | LOX IMVI > 100 µM | LXFL 529 > 100 µM | M14 > 100 µM | M19-MEL > 100 µM | MOLT-4 > 100 µM | Malme-3M > 100 µM | NCI-H226 > 100 µM | NCI-H23 > 100 µM | NCI-H522 > 100 µM | OVCAR-3 > 100 µM | OVCAR-4 > 100 µM | OVCAR-5 > 100 µM | OVCAR-8 > 100 µM | RPMI-8226 > 100 µM | RXF 393 > 100 µM | SF-268 > 100 µM | SF-295 > 100 µM | SF-539 > 100 µM | SK-MEL-28 > 100 µM | SK-MEL-2 > 100 µM | SK-MEL-5 > 100 µM | SK-OV-3 > 100 µM | SNB-19 > 100 µM | SNB-75 > 100 µM | SNB-78 > 100 µM | SR > 100 µM | SW-620 > 100 µM | TK-10 > 100 µM | U-251 > 100 µM | UACC-257 > 100 µM | UACC-62 > 100 µM | UO-31 > 100 µM | XF498 > 100 µM
> 100 µM: HCT-15

O=[N+]([O-])c1ccc(-c2cnc3ccccn23)cc1
inactive: 786-0 > 100 µM | A498 > 100 µM | A549 > 100 µM | ACHN > 100 µM | CAKI-1 62.4 µM | CCRF-CEM > 100 µM | COLO 205 > 100 µM | DMS-114 48.6 µM | DMS-273 > 100 µM | EKVX > 100 µM | HCT-116 > 100 µM | HL-60 44.2 µM | HOP-62 > 100 µM | HT-29 > 100 µM | K562 > 100 µM | KM-20L2 > 100 µM | KM12 > 100 µM | LOX IMVI > 100 µM | LXFL 529 > 100 µM | M14 > 100 µM | M19-MEL > 100 µM | MOLT-4 > 100 µM | Malme-3M > 100 µM | NCI-H226 > 100 µM | NCI-H23 > 100 µM | NCI-H460 > 100 µM | NCI-H522 > 100 µM | OVCAR-3 > 100 µM | OVCAR-4 > 100 µM | OVCAR-5 > 100 µM | OVCAR-8 > 100 µM | RPMI-8226 52.6 µM | RXF 393 24.2 µM | SF-268 > 100 µM | SF-295 > 100 µM | SF-539 > 100 µM | SK-MEL-28 > 100 µM | SK-MEL-2 > 100 µM | SK-MEL-5 > 100 µM | SK-OV-3 62.5 µM | SN12C 61.2 µM | SNB-19 > 100 µM | SNB-75 30.6 µM | SNB-78 > 100 µM | SR 84.7 µM | SW-620 > 100 µM | U-251 > 100 µM | UACC-257 > 100 µM | UACC-62 > 100 µM | UO-31 > 100 µM | XF498 > 100 µM
> 100 µM: HCT-15
